According to PubChem BioAssay (NCI):
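Here, GI50 denotes the concentration required for 50% inhibition of growth. TGI: concentration producing complete growth inhibition.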

Assays:
Test in all cases: NCI-60 cell line screen, 384-well format
786-0 renal = test system: 786-0 renal
A498 renal = test system: A498 renal
A549 NSCLC = test system: A549 NSCLC
ACHN renal = test system: ACHN renal
BT-549 breast = test system: BT-549 breast
CAKI-1 renal = test system: CAKI-1 renal
CCRF-CEM leukemia = test system: CCRF-CEM leukemia
COLO 205 colon = test system: COLO 205 colon
DU-145 prostate = test system: DU-145 prostate
EKVX NSCLC = test system: EKVX NSCLC
HCC-2998 colon = test system: HCC-2998 colon
HCT-116 colon = test system: HCT-116 colon
HCT-15 colon = test system: HCT-15 colon
HL-60(TB) leukemia = test system: HL-60(TB) leukemia
HOP-62 NSCLC = test system: HOP-62 NSCLC
HOP-92 NSCLC = test system: HOP-92 NSCLC
HT29 colon = test system: HT29 colon
IGROV1 ovarian = test system: IGROV1 ovarian
KM12 colon = test system: KM12 colon
LOX IMVI melanoma = test system: LOX IMVI melanoma
M14 melanoma = test system: M14 melanoma
MCF7 breast = test system: MCF7 breast
MDA-MB-468 breast = test system: MDA-MB-468 breast
MOLT-4 leukemia = test system: MOLT-4 leukemia
NCI-H226 lung = test system: NCI-H226 lung
NCI-H460 NSCLC = test system: NCI-H460 NSCLC
NCI/ADR-RES ovarian = test system: NCI/ADR-RES ovarian
OVCAR-3 ovarian = test system: OVCAR-3 ovarian
OVCAR-4 ovarian = test system: OVCAR-4 ovarian
OVCAR-5 ovarian = test system: OVCAR-5 ovarian
OVCAR-8 ovarian = test system: OVCAR-8 ovarian
PC-3 prostate = test system: PC-3 prostate
RPMI-8226 leukemia = test system: RPMI-8226 leukemia
SF-268 CNS = test system: SF-268 CNS
SF-295 CNS = test system: SF-295 CNS
SNB-75 CNS = test system: SNB-75 CNS
SW-620 colon = test system: SW-620 colon
TK-10 renal = test system: TK-10 renal
U251 glioblastoma = test system: U251 glioblastoma
UACC-62 melanoma = test system: UACC-62 melanoma
UO-31 renal = test system: UO-31 renal

## CCNCCS(=O)(=O)NC[C@@]1(c2ccccc2)SC(NC(=O)C(C)(C)C)=NN1C(=O)C(C)(C)C
786-0 renal
  GI50: < 0.01 µM
  TGI: 28.6 µM
A498 renal
  GI50: < 0.01 µM
  TGI: > 100 µM
A549 NSCLC
  GI50: < 0.01 µM
  TGI: > 100 µM
ACHN renal
  GI50: 52.6 µM
  TGI: > 100 µM
BT-549 breast
  GI50: < 0.01 µM
  TGI: 58.9 µM
CAKI-1 renal
  GI50: 0.0427 µM
  TGI: > 100 µM
CCRF-CEM leukemia
  GI50: < 0.01 µM
  TGI: < 0.01 µM
COLO 205 colon
  GI50: < 0.01 µM
  TGI: < 0.01 µM
DU-145 prostate
  GI50: < 0.01 µM
  TGI: > 100 µM
EKVX NSCLC
  GI50: < 0.01 µM
  TGI: > 100 µM
HCC-2998 colon
  GI50: < 0.01 µM
  TGI: 24.6 µM
HCT-116 colon
  GI50: < 0.01 µM
  TGI: > 100 µM
HCT-15 colon
  GI50: 0.108 µM
  TGI: > 100 µM
HL-60(TB) leukemia
  GI50: < 0.01 µM
  TGI: < 0.01 µM
HOP-62 NSCLC
  GI50: < 0.01 µM
  TGI: 75.6 µM
HOP-92 NSCLC
  GI50: < 0.01 µM
  TGI: 62 µM
HT29 colon
  GI50: < 0.01 µM
  TGI: < 0.01 µM
IGROV1 ovarian
  GI50: < 0.01 µM
  TGI: > 100 µM
KM12 colon
  GI50: < 0.01 µM
  TGI: > 100 µM
LOX IMVI melanoma
  GI50: < 0.01 µM
  TGI: 22.4 µM
M14 melanoma
  GI50: < 0.01 µM
  TGI: < 0.01 µM
MCF7 breast
  GI50: < 0.01 µM
  TGI: 42.7 µM
MDA-MB-468 breast
  GI50: < 0.01 µM
  TGI: < 0.01 µM
MOLT-4 leukemia
  GI50: < 0.01 µM
  TGI: < 0.01 µM
NCI-H226 lung
  GI50: 74.6 µM
  TGI: > 100 µM
NCI-H460 NSCLC
  GI50: < 0.01 µM
  TGI: < 0.01 µM
NCI/ADR-RES ovarian
  GI50: 3.42 µM
  TGI: > 100 µM
OVCAR-3 ovarian
  GI50: < 0.01 µM
  TGI: < 0.01 µM
OVCAR-4 ovarian
  GI50: 29.5 µM
  TGI: > 100 µM
OVCAR-5 ovarian
  GI50: < 0.01 µM
  TGI: > 100 µM
OVCAR-8 ovarian
  GI50: < 0.01 µM
  TGI: > 100 µM
PC-3 prostate
  GI50: < 0.01 µM
  TGI: > 100 µM
RPMI-8226 leukemia
  GI50: < 0.01 µM
  TGI: < 0.01 µM
SF-268 CNS
  GI50: < 0.01 µM
  TGI: < 0.01 µM
SF-295 CNS
  GI50: 0.0177 µM
  TGI: > 100 µM
SNB-75 CNS
  GI50: < 0.01 µM
  TGI: 48.7 µM
SW-620 colon
  GI50: < 0.01 µM
  TGI: 62.6 µM
TK-10 renal
  GI50: 26.4 µM
  TGI: > 100 µM
U251 glioblastoma
  GI50: < 0.01 µM
  TGI: > 100 µM
UACC-62 melanoma
  GI50: < 0.01 µM
  TGI: > 100 µM
UO-31 renal
  GI50: 63.3 µM
  TGI: > 100 µM
